Experimental data from patent publication US9714401B2, “Particles for malodor reduction” (The Procter & Gamble Company, priority 2015, dated 2017).

Assay: Blocker Index (BI), expert graders smelling isovaleric acid + test material swatches against isovaleric acid reference scale
Text: Material selection is done by assigning two indices to a test sample material from two reference scales in order to rank odor strengths. The two reference scales are the Fragrance Fidelity Index (FFI) scale and the Blocker Index (BI) scale. The FFI ranks the ability of the test sample material to impart a perceivable odor which could cause interference when combined with another fragrance and the BI ranks the ability of the test sample material to reduce malodor perception. The two methods for assigning the indices to a test sample on the FFI and the BI reference scales are given below.
The first step in the method for assigning a BI to a test sample material on the BI reference scale is to create the BI reference swatches. […] Fabric swatches for this test are white knit polycotton (4 inch×4 inch) swatches from EMC ordered as PC 50/50. The supplier is instructed to strip the swatches first, stripping involves washing twice with a fragrance-free detergent and rinsing three times.
The BI scale contains one clean swatch with no malodor applied. […] These solutions are pipetted to the middle of the swatches. […] After drying for 30 minutes in a vented hood, the swatches are wrapped in aluminum foil to prevent odor contamination to the treated swatch. A clean untreated swatch is also included as the lowest anchor point of reference for malodor strength on the BI scale. […]

Question: Which BI (Conc 10 ppm test material on swatch with 20 μL 0.08% isovaleric acid) does the source give for `COC(=O)OC1CCC=CCCC1` (centres unmarked) [Material 1139] here?
Answer: Its BI is 2.0.

Question: What about the BI (Conc 50 ppm test material on swatch with 20 μL 0.08% isovaleric acid) of the same compound?
Answer: The BI was 2.7.
